The source of these data is US9878041B2, “Cyanoacrylate tissue adhesives” (Adhezion Biomedical, LLC, priority 2007, dated 2018).

Data set [1] has as its system Human dermal fibroblast (HDF) cells. Description: In vitro cytotoxicity of adhesive-conditioned media (MTT assay). Type of data set: cell-based. To be noted: ACM collected at 2 days; HDF cultured 2 days; FIG. 9. The procedure:
2 μl of various CA formulations were applied on thin collagen films in 12 well plates and allowed to polymerize completely overnight at room temperature. One ml of […] (DMEM) including 10% Serum and 1% Penicillin/Streptomycin was added into each well and incubated at 37° C. in a humidified CO2 incubator to simulate adhesive degradation. Media samples were collected at 2, 7, and 14 days and these adhesive-conditioned media (ACM) were stored at −20° C. until use. Human dermal fibroblast (HDF) cells were seeded in new 12-well culture plates at a density of 8×10^4 cells/well and cultured for 24 hours to allow cell attachment. The media was replaced with the stored ACM and cultured for 2 days at 37° C. to evaluate the in vitro cytotoxicity of the various CA derivatives. Cell cytotoxicity by the degraded CA adhesives in ACM was evaluated by MTT assay. The principle of this assay is the addition of a dye which is degraded by enzymes present in living cells, resulting in the formation of a colored product. The product concentration, which is generally directly proportional to the number of viable cells, is assayed by spectrophotometry.
For orientation: Formazan colour is commonly taken as a measure of viable cells.

In data set [2] the test system is hind limb muscles of adult Sprague-Dawley rats. Description: In vivo biocompatibility and degradation, macroscopic and IHC, incision closure. The text has this: Small surgical incisions (0.2 cm in depth, 1 cm in length) were made in both hind limb muscles of adult Sprague-Dawley rats (n=4). One incision was closed by 1 drop of various cyanoacrylate formulations dispensed through a surgical syringe needle (25 G) and the other was closed by absorbable suture (VICRYL, Ethicon) with and without injection of equivalent volumes of PEG included in cyanoacrylate formulations as controls. In order to ensure proper identification of the injury sites, a single non-absorb-able suture was placed adjacent to each repaired incision site.
At 7 days, 4 weeks, and 12 weeks post-surgery, tissue explants containing the repaired incision sites and surrounding muscle tissue were retrieved. The explants were photographed to document the macroscopic tissue response to the various cyanoacrylate formulations and suture controls (FIGS. 3A-3H (7 days), 4A-4H (4 weeks), and 5A-5H (12 weeks)). Identification of specific cells types associated with wound healing and inflammation was performed by histological sectioning and immunohistochemical (IHC) staining. Tissue explants were embedded in Optimal cutting temperature (OCT) compound and sectioned perpendicular to the surface of the repaired muscle tissue. Sections ([…] thick) were transferred to glass microscope slides, fixed with methanol, permeabilized with 0.025% Triton in PBS solution, and stained with primary antibodies directed against vimentin (fibroblasts) and rat macrophages, and Alexa-594 conjugated secondary antibodies. DAPI mounting media was used to counterstain all cellular nuclei. Samples were imaged by fluorescence microscopy (FIGS. 6A-6P, 7A-7P, 8A-8P). Specific cell types are identified in red, sutures and various cyanoacrylate adhesives are shown in green, and cellular nuclei are shown in blue. […]

Another data set deals with Escherichia coli. Kind of data set: Antibacterial activity by agar diffusion method. The arrangement: key: c: Inhibition of growth not observed. Type of data set: cell-based. To be noted: 10 mg sample. The procedure:
Antibacterial activity of polymyxin B-loaded PBCA nanoparticles was measured indirectly by the agar diffusion method. 30 ml of nutrient agar was added into each of four culture plates (90 mm diameter, 15 mm high). After solidifying, a cylindrical hole (13 mm in diameter) was made in the center of the plate and the contents were removed. 10 mg of polymyxin B, PBCA nanoparticles, and two polymyxin B-loaded PBCA nanoparticles (Poly BIPBCA-1 and 2) were added into a hole of each plate, respectively and a few drops of molten agar were added to fix the samples. The plate were inoculated with Escherichia coli and incubated at 37° C. for 24 hours and the zone of inhibition was determined (FIGS. 13A-13D).
To evaluate the duration of antibacterial activity of each sample, the content of each hole was removed after 24 hours of incubation and transferred to a hole of a freshly prepared plate, incubated again for 24 hours and the zone of inhibition measured. This procedure was continuously repeated until the inhibition of growth was no longer observed.

The next data set concerns Human dermal fibroblasts. Kind of data set: Cell adhesion to polymerized cyanoacrylates (live/dead staining). Type of data set: cell-based. To be noted: 48 hours culture; FIG. 10. The procedure: 2 μl aliquots of various cyanoacrylate formulations with and without PEG were applied to thin collagen films in 24 well plates and allowed to cure overnight at room temperature. Human dermal fibroblasts were seeded on the collagen film/polymerized adhesive surfaces at 8×10^4 cells/well and cultured for 48 hours. The cells were stained with fluorescein diacetate and propidium iodide to visualize live (green) and dead (red) cells respectively. FIGS. 10A (OCA+MCA), 10B (OCA+MCA/PEG), 10E (MCA), and 10F (MCA/PEG) are phase contrast images (black and white) showing the interface between the cyanoacrylate adhesives and the surrounding collagen films and corresponding fluorescent images FIGS. 10C (OCA+MCA), 10D (OCA+MCA/PEG), 10G (MCA), and 10H (MCA/PEG) showing the location of adherent cells.

A short description of data set [3]: In vitro accelerated degradation study of cured adhesive films. Type of data set: physicochemical. As to conditions: thin films in 0.05N NaOH, 37° C., 3, 7, 14 and 21 days; FIG. 1. The procedure:
In vitro accelerated degradation studies have been performed to evaluate the degradation rate of various cyanoacrylate adhesives formulated with PEG and without PEG. 20 μl of cyanoacrylate (CA) derivatives and CA derivatives/PEG (MW=600) formulations were spread as a thin layer on the glass microscope slides and allowed to cure overnight at room temperature. […] The films were collected at 3, 7, 14, and 21 days and washed with distilled water two times. The washed films were freeze-dried and weighed (W1) (n=3). […] 2. Tissue Bond Strength Study

Where [4] appears, read: 4 weeks post-surgery, one value per rat.
Where [5] appears, read: 7 days post-surgery, one value per rat.
Setting [6] is: 7 days post-surgery, one value per rat (Rat No. 1-4), star grades not defined.
[7] abbreviates: Table IV, 4 weeks post-surgery (12 weeks), one value per rat.

For the compound `C=C(C#N)C(=O)OCCCCCCCC` [OCA, octylcyanoacrylate], the “cytotoxicity of adhesive-conditioned media (% cell viability)” value in data set [1] is “not cytotoxic except for the ACM from OCA”. Further, the Vessel formation result in data set [2] (setting [4]), in data set [2] (setting [5]) and in data set [2] (setting [7]) was “no” each time. Besides, in data set [2] (7 days post-surgery), the “macroscopic inflammation and swelling of tissue explants” value was “mild inflammation and swelling”. Further, the Degree of inflammation result in data set [2] (setting [6]) and in data set [2] (setting [7]) was “no” each time.
Turning to Polymyxin B, the “Inhibition zone: Diameter (mm)” value in the data set on Escherichia coli (day 1, includes original 13 mm sample size) is given as 36 mm; in the data set with Escherichia coli (day 2 (sample moved to fresh plate every 24 hours), includes 13 mm sample size) it was 38.3 mm; with Escherichia coli (day 3, includes 13 mm sample size) it was 28 mm; in the data set with Escherichia coli (day 4, includes 13 mm sample size), 25.1 mm; with Escherichia coli (day 5, includes 13 mm sample size) it was 22 mm; in the data set with Escherichia coli (day 6), “c”.
On to methoxyisopropylcyanoacrylate [MCA], for which, in the data set on Human dermal fibroblasts, the “fibroblast adhesion to polymerized adhesive surface” value is “readily adhered in large numbers”. The “% degradation in vitro” value in data set [3] was “significantly increased degradation”. Further, the Degree of inflammation entry in data set [2] (setting [4]), in data set [2] (setting [6]) and in data set [2] (setting [7]) was “no” throughout. Further, the Vessel formation result in data set [2] (setting [4]), in data set [2] (setting [5]) and in data set [2] (setting [7]) was “no” in each case. In data set [2] (Table IV, 4 weeks post-surgery (12 weeks), one value per rat, IHC), the No. of macrophages is on record as 0.
